Assays:
[1] = Visible particles in E/P box (Ph. Eur. 2.9.20) after spiking FFA to inorganic salt solutions; format: physicochemical; conditions: FFA below solubility limit; for Visible particles E/P d0: d0 directly after spiking
Experimental: (§1) Aqueous stock solutions were prepared in 0.02% PS20 (Croda. Edison, N.J., USA) at defined concentrations of (1) 5 mg/mL and (2) 12.5 mg/mL (lauric acid. Sigma-Aldrich/Merck. Darmstadt. Del.) or (1) 1.5 mg/mL and (2) 5 mg/mL (myristic acid, Sigma-Aldrich/Merck. Darmstadt. Del.) as previously described by Doshi et al.^6 The procedure was adapted that the FFA/PS20 stock solution was sterile filtered using 0.22 μm PVDF Steriflip filters (Merck Millipore. Darmstadt. Del.) before 1:10 dilution and subsequently homogenized without a magnetic stirrer using a Heidolph Rotamax 120 orbital shaker (Schwabach. Del.) at 100 rpm at 25° C., for 1 hour. After 1:500 dilution, the solution was homogenized for 1 hour at 25° C., before homogenization at 2-8° C., overnight, 12-40 μL of stock solution were used for spiking experiments yielding final FFA concentrations of (1) 10 μg/mL and (2) 25 μg/mL (lauric acid) or (1) 3 μg/mL and (2) 10 μg/mL (myristic acid). Dilutions with stock solutions 1 yield FFA concentration below their solubility limit, whereas stock solutions 2 act as positive control confirmed by the formation of visible particles. FFA concentrations were verified for selected by LC-MS samples acc. Honemann et al.^7
Aqueous stock solutions of different salts were prepared at 1 mg/mL and used for spiking experiments to final concentrations between […]. NaCl, NaAlO2. NaBO2. B2O3, and CaCl2 (Sigma-Aldrich/Merck. Darmstadt. Del.) were selected as their dissolution products (ions) represent typical glass leachables from Type I borosilicate glass. The pH of the NaAlO2 and NaBO2 stock solutions was adjusted to pH 6 using HCl and subsequently filtered using 0.22 μm PVDF Sterivex filters (Merck Millipore. Darmstadt. Del.) and true elemental concentrations were determined by inductively-coupled plasma mass spectrometry (ICP-MS). Elemental concentrations were 0,048 μg/mL Aluminium and 295 μg/mL sodium and 78 μg/mL boron and 168 μg/mL, respectively. Spiking experiments with FFA were performed in duplicates.
(§2) Samples were analyzed by visual inspection on a Seidenader V 90-T instrument (Seidenader Maschinenbau GmbH. Markt Schwaben. Del.) as previously described by Ditter et al.^9 and using a black/white panel according Ph. Eur. 2.9.20.^10 and classified as Many particles (>7). Few particles (4-7), or Practically free of particles (0-4) in E/P box, and Many particles (>10). Few particles (6-10). Essentially free of particles (1-5), or Free of particles (0) by Seidenader.
(§3) pH of all solutions was verified. Samples were visually inspected immediately after spiking and regularly for up to 7 days. Further characterization by HIAC, turbidity, FTIR, and SEM-EDX was performed on day 1 only. All samples were analyzed when equilibrated to room temperature (4 h).
Different inorganic salt solutions, i.e. CaCl2. NaAlO2. NaBO2. B2O3, and NaCl, were prepared simulating artificial glass leachables. Myristic and lauric acid, as main degradation product from hydrolytic PS20 degradation, were added at concentrations below their solubility limit and samples were analyzed for visible particles. SVP, and turbidity. Samples were compared against relevant controls and the pH verified at pH 6.

[2] = Visible particles (Seidenader) after spiking FFA to glass leachable solutions; format: physicochemical; set-up: key to Visible particles: relative ranking to each other from less to most particle fromation (+, ++, +++); relative ranking to each other from less to most particle fromation (+, ++, +++); relative ranking to each other from less to most particle fromation (+, ++, +++); conditions: for Visible particles: FFA below solubility limit, up to 7 days, triplicates; for Visible particles d0: d0 directly after spiking
Experimental: as §1
Representative mixtures of glass leachables were obtained from three different types of glass vials, e.g. Exp 33 and Exp51 (Schott A G, Müllheim, D E, and Schott North America Inc., N.Y. USA) in the 6 mL format, by three autoclavation cycles (121° C., 20 min) representing accelerate aging conditions. Vials were filled with 6 mL of either water for injection (WFI), 20 mM glycine solution pH 10 or a typical placebo solution used for protein formulations consisting of 20 mM Histidine/Histdine-HCl buffer pH 6.0, 10 mM Methionine, 240 mM sucrose (Ferro Pfanstiehl. Waukegan. Ill. USA), and 0.02% PS20. The pH of the glycine solutions was adapted after autoclavation with HCl to pH 6.0 and filtered through a 0.22 μm PVDF Sterivex filters (Merck Millipore. Darmstadt. Del.) Leachable concentrations were verified ICP-MS (Table 1) as described by Ditter et al.^8 Spiking experiments with FFA were performed in triplicates,
as §2, §3
Glass leachables were generated from different types of glass vials, e.g. Exp33 and Exp51 vials, with different matrix solutions including WFI, a glycine solution adjusted to pH 6, and a placebo solution representative for a mAb formulation. Defined amounts of myristic and lauric acid below their solubility limit were added to the solutions/mixtures of glass leachables and analyzed. Visible particles in Seidenader are summarized in Table 3 and were detected for all samples in contrast to various controls. Particle formation was dependent on the glass leachable solution and dependent on incubation time. […] An example for the dependency of particle formation on incubation time is provided in Table 3 for myristic acid in glass leachable solution from Exp51 vials/glycine solution. The example highlights the kinetics of particle formation with no particles directly after spiking and more than 10 particles at incubation day 5 and 7. For selected samples, particles were further characterized and identified by FTIR confirming the presence of free fatty acids. […]

[3] = CaCl2 250 μg/mL (Ca2+ 90 μg/mL)
[4] = CaCl2 500 μg/mL (Ca2+ 180 μg/mL)
[5] = CaCl2 1000 μg/mL (Ca2+ 360 μg/mL)
[6] = NaAlO2 nominal 250 μg/mL (0.012 μg/mL ion)
[7] = NaAlO2 nominal 500 μg/mL (0.024 μg/mL ion)
[8] = NaAlO2 nominal 1000 μg/mL (0.048 μg/mL ion)
[9] = glass leachable solution Exp33 vials, 3xTS Placebo
[10] = glass leachable solution Exp33 vials, 3xTS WFI
[11] = glass leachable solution Exp51 vials, 3xTS Glycine pH 6
[12] = glass leachable solution Exp51 vials, 3xTS Placebo
[13] = glass leachable solution Exp51 vials, 3xTS WFI
[14] = Exp51 vials, 3xTS Glycine pH 6, samples 1-3
[15] = Exp51 vials, 3xTS Glycine pH 6, samples 1-3, listed as myristic acid

Structure (SMILES) | Visible particles E/P d0 [1, 3] | Visible particles E/P d2 [1, 3] | Visible particles E/P d7 [1, 3] | Visible particles E/P d0 [1, 4] | Visible particles E/P d7 [1, 4] | Visible particles E/P d0 [1, 5] | Visible particles E/P d2 [1, 5] | Visible particles E/P d7 [1, 5] | Visible particles E/P d0 [1, 6] | Visible particles E/P d1 [1, 6] | Visible particles E/P d2 [1, 6] | Visible particles E/P d7 [1, 6] | Visible particles E/P d0 [1, 7] | Visible particles E/P d1 [1, 7] | Visible particles E/P d2 [1, 7] | Visible particles E/P d0 [1, 8] | Visible particles E/P d1 [1, 8] | Visible particles E/P d7 [1, 8] | Visible particles [2, 9] | Visible particles [2, 10] | other results
CCCCCCCCCCCC(=O)O [Lauric acid, lauric acid] | / (Practically free of particles (0-4, /) in E/P box) | / (Practically free of particles (0-4, /) in E/P box) | / (Practically free of particles (0-4, /) in E/P box) | / (Practically free of particles (0-4, /) in E/P box) | / (Practically free of particles (0-4, /) in E/P box) | / (Practically free of particles (0-4, /) in E/P box) | xx (Few particles (4-7, xx)) | / (Practically free of particles (0-4, /) in E/P box) | / (Practically free of particles (0-4, /) in E/P box) | / (Practically free of particles (0-4, /) in E/P box) | / (Practically free of particles (0-4, /) in E/P box) | / (Practically free of particles (0-4, /) in E/P box) | / (Practically free of particles (0-4, /) in E/P box) | / (Practically free of particles (0-4, /) in E/P box) | / (Practically free of particles (0-4, /) in E/P box) | / (Practically free of particles (0-4, /) in E/P box) | / (Practically free of particles (0-4, /) in E/P box) | / (Practically free of particles (0-4, /) in E/P box) | +++ | + | Visible particles E/P d2 [1, 4]: / (Practically free of particles (0-4, /) in E/P box); Visible particles E/P d7 [1, 7]: / (Practically free of particles (0-4, /) in E/P box); Visible particles E/P d2 [1, 8]: / (Practically free of particles (0-4, /) in E/P box); Visible particles [2, 11]: ++; Visible particles [2, 12]: +++; Visible particles [2, 13]: ++
CCCCCCCCCCCCCC(=O)O [Myristic acid, myristic acid] | / (Practically free of particles (0-4, /) in E/P box) | / (Practically free of particles (0-4, /) in E/P box) | xxx (Many particles (>7, xxx)) | / (Practically free of particles (0-4, /) in E/P box) | xxx (Many particles (>7, xxx)) | / (Practically free of particles (0-4, /) in E/P box) | xxx (Many particles (>7, xxx)) | xxx (Many particles (>7, xxx)) | / (Practically free of particles (0-4, /) in E/P box) | / (Practically free of particles (0-4, /) in E/P box) | / (Practically free of particles (0-4, /) in E/P box) | / (Practically free of particles (0-4, /) in E/P box) | / (Practically free of particles (0-4, /) in E/P box) | / (Practically free of particles (0-4, /) in E/P box) | / (Practically free of particles (0-4, /) in E/P box) | / (Practically free of particles (0-4, /) in E/P box) | / (Practically free of particles (0-4, /) in E/P box) | xxx (Many particles (>7, xxx)) | + | + | Visible particles E/P d1 [1, 3]: / (Practically free of particles (0-4, /) in E/P box); Visible particles E/P d1 [1, 4]: xx (Few particles (4-7, xx)); Visible particles E/P d1 [1, 5]: xxx (Many particles (>7, xxx)); Visible particles d0 [2, 14]: 1-5 particles; Visible particles d0 [2, 15]: no particles; Visible particles d1 ([2]; Exp51 vials, 3xTS Glycine pH 6, d1, samples 1-3): 1-5 particles; Visible particles d5/7 [2, 14]: >10 particles; Visible particles d5/7 [2, 15]: more than 10 particles; Visible particles ([2]; glass leachable solution Exp33 vials, 3xTS Glycine pH 6): +; Visible particles [2, 11]: +++; Visible particles [2, 12]: +; Visible particles [2, 13]: +
